Assay results from ChEMBL document CHEMBL3232918, “Core modification of substituted piperidines as novel inhibitors of HDM2-p53 protein-protein interaction” (Bioorg Med Chem Lett, 2014).

Tests used:
SJSA-1 = assay: Antiproliferative activity against human SJSA1 cells
[1] = target: E3 ubiquitin-protein ligase Mdm2 (Homo sapiens, UniProt Q00987); assay: Binding affinity to HDM2 (unknown origin) by fluorescence polarization peptide displacement assay
[2] = Oral bioavailability in mouse at 20 mg/kg; assay type: ADME, organism-based; settings: in vivo
[3] = AUC in mouse at 20 mg/kg, iv and 20 mg/kg, po; assay type: ADME, organism-based; settings: plasma
[4] = Permeability of the compound in human Caco2 cells; assay type: ADME, cell-based; settings: Caco-2, read-out: permeability

E3 ubiquitin-protein ligase Mdm2, sequence (Q00987 whole entry): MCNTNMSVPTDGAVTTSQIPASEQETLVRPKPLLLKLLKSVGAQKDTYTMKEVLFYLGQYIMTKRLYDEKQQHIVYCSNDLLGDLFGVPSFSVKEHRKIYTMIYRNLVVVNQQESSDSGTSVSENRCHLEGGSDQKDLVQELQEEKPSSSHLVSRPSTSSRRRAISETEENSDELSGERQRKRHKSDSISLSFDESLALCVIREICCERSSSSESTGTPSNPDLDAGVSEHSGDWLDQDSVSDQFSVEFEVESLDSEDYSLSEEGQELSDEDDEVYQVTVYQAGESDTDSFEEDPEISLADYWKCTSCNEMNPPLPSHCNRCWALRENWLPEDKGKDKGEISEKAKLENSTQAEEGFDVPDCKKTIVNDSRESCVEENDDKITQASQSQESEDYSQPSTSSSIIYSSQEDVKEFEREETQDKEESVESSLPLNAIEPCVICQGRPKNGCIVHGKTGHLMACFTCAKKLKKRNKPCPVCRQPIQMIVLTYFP

C=CC[C@H]1N(C(=O)c2cnccc2C(F)(F)F)CCC[C@@]1(Oc1ccc(C(F)(F)F)cc1)C(=O)N1CCN(c2ccccc2OCCOC)CC1
IC50 (SJSA-1): 1 µM

COCCOc1ccccc1N1CCN(C(=O)[C@]2(Oc3ccc(C(F)(F)F)cc3)CC[C@H](c3ccccc3)N(C(=O)c3cnccc3C(F)(F)F)C2)CC1
IC50 [1]: > 10 µM

COc1ccccc1N1CCN(C(=O)[C@]2(Oc3ccc(C(F)(F)F)cc3)CCCN(C(=O)c3cnccc3C(F)(F)F)C2)CC1
bioavailability [2]: 19%
AUC [3]: 1.9 µM·h
Papp [4]: 15.8 ×10⁻⁶ cm/s
IC50 (SJSA-1): 5.5 µM

COc1ccc(C2=N[C@@H](c3ccc(Cl)cc3)[C@@H](c3ccc(Cl)cc3)N2C(=O)N2CCNC(=O)C2)c(OC(C)C)c1 [NUTLIN-3]
Papp [4]: 12.6 ×10⁻⁶ cm/s
IC50 (SJSA-1): 1.9 µM

COCCOc1ccccc1N1CCN(C(=O)[C@]2(Oc3ccc(C(F)(F)F)cc3)CCCN(C(=O)c3cnccc3C(F)(F)F)C2)CC1
bioavailability [2]: 32%
AUC [3]: 1.1 µM·h
Papp [4]: 20.3 ×10⁻⁶ cm/s
IC50 (SJSA-1): 4.7 µM
